Measured values: PubChem BioAssay AID190 (DTP/NCI, 2004)
Values joined by “and” are separate entries in the source; they are usually repeats but may differ in a detail not shown here. Equal entries are not always repeated. Inconclusive results and toxic doses are left out. Rule for the calls: active = survival T/C of 150% or more; inactive = T/C below 125% in these data.

Tested on: AKR/Lw mice, AKR lymphoma ip, median survival T/C
Test: NCI In Vivo Anticancer Drug Screen. Data for tumor model Lymphoma AKR (Transplanted) (intraperitoneal) in AKR/Lw mice
Settings: endpoint: median survival time, higher = longer survival
Description: The antitumor activity of compounds was measured in mice bearing transplantable tumors. Survival or tumor size were measured and the results are expressed as the measurement made in the treated group (T) divided by the measurement made in the vehicle treated control group (C). The tumor model used in this assay is Lymphoma AKR (Transplanted) (intraperitoneal) in AKR/Lw mice

[1] = dose: 25.0 mg/kg/injection, schedule: Q01DX001 (ip), vehicle: saline
[2] = dose: 32.0 mg/kg/injection, schedule: Q04DX003 (ip), vehicle: water
[3] = dose: 64.0 mg/kg/injection, schedule: Q04DX003 (ip), vehicle: water
[4] = dose: 25.0 mg/kg/injection, schedule: Q01DX001 (ip), vehicle: Klucel (hydroxypropylcellulose) (HPC)
[5] = dose: 50.0 mg/kg/injection, schedule: Q01DX001 (ip), vehicle: Klucel (hydroxypropylcellulose) (HPC)
[6] = dose: 50.0 mg/kg/injection, schedule: Q01DX001 (ip), vehicle: saline
[7] = dose: 75.0 mg/kg/injection, schedule: Q01DX001 (ip), vehicle: Klucel (hydroxypropylcellulose) (HPC)
[8] = dose: 200.0 mg/kg/injection, schedule: Q01DX001 (ip), vehicle: saline
[9] = dose: 400.0 mg/kg/injection, schedule: Q01DX001 (ip), vehicle: saline
[10] = dose: 100.0 mg/kg/injection, schedule: Q01DX001 (ip), vehicle: Klucel (hydroxypropylcellulose) (HPC)

Measured: T/C

CN(C)C(=O)c1cccc(COc2ccc(N3C(N)=NC(N)=NC3(C)C)cc2Cl)c1
inactive: dose: 0.25 mg/kg/injection, schedule: Q04DX003 (ip), vehicle: saline 105 % of control | dose: 0.5 mg/kg/injection, schedule: Q04DX003 (ip), vehicle: saline 108 % of control | dose: 1.0 mg/kg/injection, schedule: Q04DX003 (ip), vehicle: saline 97 % of control | dose: 1.2 mg/kg/injection, schedule: Q01DX009 (ip), vehicle: saline 100 % of control | dose: 1.25 mg/kg/injection, schedule: Q01DX009 (ip), vehicle: saline 106 % of control | dose: 2.0 mg/kg/injection, schedule: Q04DX003 (ip), vehicle: saline 114 % of control | dose: 3.1 mg/kg/injection, schedule: Q01DX009 (ip), vehicle: saline 100 % of control | dose: 4.0 mg/kg/injection, schedule: Q04DX003 (ip), vehicle: saline 114 % of control | dose: 6.2 mg/kg/injection, schedule: Q01DX009 (ip), vehicle: saline 94 % of control and 97 % of control and 108 % of control | dose: 8.0 mg/kg/injection, schedule: Q04DX003 (ip), vehicle: water 100 % of control | dose: 10.0 mg/kg/injection, schedule: Q04DX003 (ip), vehicle: saline 105 % of control | dose: 12.0 mg/kg/injection, schedule: Q01DX001 (ip), vehicle: saline 112 % of control | dose: 15.0 mg/kg/injection, schedule: Q01DX009 (ip), vehicle: saline 112 % of control | dose: 16.0 mg/kg/injection, schedule: Q04DX003 (ip), vehicle: water 109 % of control | dose: 18.0 mg/kg/injection, schedule: Q04DX003 (ip), vehicle: saline 109 % of control | [1] 112 % of control | [2] 120 % of control | dose: 35.0 mg/kg/injection, schedule: Q04DX003 (ip), vehicle: saline 116 % of control and 120 % of control | dose: 37.5 mg/kg/injection, schedule: Q04DX003 (ip), vehicle: saline 116 % of control | [3] 105 % of control

COc1ccc2cc1Oc1ccc(cc1)C[C@H]1c3cc(c(OC)cc3CCN1C)Oc1c(OC)c(OC)cc3c1[C@H](C2)N(C)CC3
inactive: dose: 6.2 mg/kg/injection, schedule: Q01DX009 (ip), vehicle: Klucel (hydroxypropylcellulose) (HPC) 110 % of control | dose: 7.5 mg/kg/injection, schedule: Q01DX009 (ip), vehicle: saline 90 % of control | dose: 12.5 mg/kg/injection, schedule: Q01DX009 (ip), vehicle: Klucel (hydroxypropylcellulose) (HPC) 107 % of control and 113 % of control | dose: 12.5 mg/kg/injection, schedule: Q01DX009 (ip), vehicle: saline 111 % of control | [4] 94 % of control (2×) and 97 % of control | [1] 95 % of control | dose: 25.0 mg/kg/injection, schedule: Q01DX009 (ip), vehicle: Klucel (hydroxypropylcellulose) (HPC) 97 % of control and 100 % of control (2×) | dose: 25.0 mg/kg/injection, schedule: Q01DX009 (ip), vehicle: saline 94 % of control | dose: 25.0 mg/kg/injection, schedule: Q04DX003 (ip), vehicle: Klucel (hydroxypropylcellulose) (HPC) 87 % of control | dose: 25.0 mg/kg/injection, schedule: Q04DX003 (ip), vehicle: saline 88 % of control and 109 % of control | [2] 100 % of control | [5] 94 % of control and 110 % of control | [6] 95 % of control | dose: 50.0 mg/kg/injection, schedule: Q01DX009 (ip), vehicle: Klucel (hydroxypropylcellulose) (HPC) 94 % of control and 107 % of control | dose: 50.0 mg/kg/injection, schedule: Q01DX009 (ip), vehicle: saline 94 % of control and 116 % of control | dose: 50.0 mg/kg/injection, schedule: Q04DX003 (ip), vehicle: Klucel (hydroxypropylcellulose) (HPC) 87 % of control | dose: 50.0 mg/kg/injection, schedule: Q04DX003 (ip), vehicle: saline 97 % of control and 111 % of control and 114 % of control | [3] 96 % of control | [7] 94 % of control | dose: 100.0 mg/kg/injection, schedule: Q01DX009 (ip), vehicle: Klucel (hydroxypropylcellulose) (HPC) 100 % of control | dose: 100.0 mg/kg/injection, schedule: Q01DX009 (ip), vehicle: saline 100 % of control and 106 % of control | dose: 100.0 mg/kg/injection, schedule: Q04DX003 (ip), vehicle: Klucel (hydroxypropylcellulose) (HPC) 97 % of control | dose: 100.0 mg/kg/injection, schedule: Q04DX003 (ip), vehicle: saline 98 % of control and 100 % of control and 111 % of control | dose: 128.0 mg/kg/injection, schedule: Q04DX003 (ip), vehicle: water 107 % of control | [8] 87 % of control and 104 % of control and 111 % of control | dose: 200.0 mg/kg/injection, schedule: Q01DX009 (ip), vehicle: saline 88 % of control and 94 % of control | dose: 200.0 mg/kg/injection, schedule: Q04DX003 (ip), vehicle: Klucel (hydroxypropylcellulose) (HPC) 100 % of control | dose: 200.0 mg/kg/injection, schedule: Q04DX003 (ip), vehicle: saline 97 % of control | dose: 256.0 mg/kg/injection, schedule: Q04DX003 (ip), vehicle: water 100 % of control | [9] 93 % of control and 100 % of control (2×)

C1CC2CCC[N+]3=C2C(C1)CCC3 (stereo unspecified)
inactive: dose: 12.5 mg/kg/injection, schedule: Q01DX001 (ip), vehicle: saline 100 % of control | [1] 100 % of control | [6] 108 % of control

CC(=O)OCC(=O)[C@@]1(O)CC[C@H]2[C@@H]3C[C@H](F)C4=CC(=O)CC[C@]4(C)[C@H]3C(=O)C[C@@]21C
inactive: dose: 50.0 mg/kg/injection, schedule: Q04DX003 (ip), vehicle: saline with Tween-80 103 % of control | dose: 100.0 mg/kg/injection, schedule: Q01DX001 (ip), vehicle: saline with Tween-80 90 % of control | dose: 200.0 mg/kg/injection, schedule: Q01DX001 (ip), vehicle: saline with Tween-80 111 % of control

CC(=O)N1C(=O)C2(c3ccccc31)c1cccc3c1C(=C1C(=O)OC(=O)C12)C(=O)N3C(C)=O (stereo unspecified)
inactive: [8] 86 % of control | [9] 91 % of control

COc1ccc2c3c(ccc2c1)C(=O)C(C)(C#N)CC3 (stereo unspecified)
inactive: dose: 37.5 mg/kg/injection, schedule: Q01DX001 (ip), vehicle: Klucel (hydroxypropylcellulose) (HPC) 92 % of control | [7] 94 % of control | dose: 150.0 mg/kg/injection, schedule: Q01DX001 (ip), vehicle: Klucel (hydroxypropylcellulose) (HPC) 100 % of control | dose: 300.0 mg/kg/injection, schedule: Q01DX001 (ip), vehicle: Klucel (hydroxypropylcellulose) (HPC) 107 % of control

O=CN(c1ccccc1)c1ccccc1
inactive: [4] 111 % of control | [5] 105 % of control | [10] 97 % of control | dose: 100.0 mg/kg/injection, schedule: Q01DX001 (ip), vehicle: other 120 % of control | dose: 200.0 mg/kg/injection, schedule: Q01DX001 (ip), vehicle: other 118 % of control | dose: 400.0 mg/kg/injection, schedule: Q01DX001 (ip), vehicle: other 100 % of control

CC(=O)C1CCC2C3CCC4CC(O)CCC4(C)C3CCC12C#N (stereo unspecified)
inactive: dose: 100.0 mg/kg/injection, schedule: Q01DX001 (sc), vehicle: steriod suspending solution 104 % of control | dose: 200.0 mg/kg/injection, schedule: Q01DX001 (sc), vehicle: steriod suspending solution 106 % of control | dose: 400.0 mg/kg/injection, schedule: Q01DX001 (sc), vehicle: steriod suspending solution 95 % of control

CCOc1ccc2nc(N)sc2c1
inactive: [10] 89 % of control | dose: 200.0 mg/kg/injection, schedule: Q01DX001 (ip), vehicle: Klucel (hydroxypropylcellulose) (HPC) 92 % of control

COc1ccc(/C=C2/CSC/C(=C/c3ccc(OC)c(OC)c3)C2=O)cc1OC
inactive: dose: 100.0 mg/kg/injection, schedule: Q01DX001 (ip), vehicle: saline 96 % of control | [8] 88 % of control | [9] 90 % of control
